Experiments:
Assay type in all cases: in vivo
soybean (Glycine max) = assay: Test E pre-/postemergence greenhouse test
Source text: (§1) Seeds of plant species selected from corn (Zea mays), soybean (Glycine max), velvetleaf (Abutilon theophrasti), lambsquarters (Chenopodium album), poinsettia, wild (Euphorbia heterophylla), pigweed, palmer (Amaranthus palmeri), waterhemp (common waterhemp, Amaranthus rudis), surinam grass (Brachiaria decumbens), crabgrass, large (Digitaria sanguinalis), crabgrass, Brazil (Digitaria horizontalis), panicum, fall (Panicum dichotomiflorum), foxtail, giant (Setaria faberii), foxtail, green (Setaria viridis), goosegrass (Eleusine indica), johnsongrass (Sorghum halepense), ragweed (common ragweed, Ambrosia elatior), barnyardgrass (Echinochloa crus-galli), sandbur (southern sandbur, Cenchrus echinatus), arrowleaf sida (Sida rhombifolia), ryegrass, Italian (Lolium multiflorum), dayflower, VA (Virginia (VA) dayflower, Commelina virginica), field bindweed (Convolvulus arvensis), morningglory (Ipomoea coccinea), horseweed (Conyza canadensis), kochia (Kochia scoparia), nutsedge, yellow (Cyperus esculentus) and hairy beggarticks (Bidenspilosa), were planted into a silt loam soil and treated preemergence with test chemicals formulated in a non-phytotoxic solvent mixture which included a surfactant.
(§2) At the same time, plants selected from these crop and weed species and also waterhemp_RES1, (ALS & Triazine resistant common waterhemp, Amaranthus rudis), and waterhemp_RES2, (ALS & HPPD resistant common waterhemp, Amaranthus rudis) were planted in pots containing Redi-Earth® planting medium (Scotts Company, 14111 Scottslawn Road, Marysville, Ohio 43041) comprising spaghnum peat moss, vermiculite, wetting agent and starter nutrients were treated with postemergence applications of test chemicals formulated in the same manner. Plants ranged in height from 2 to 18 cm for postemergence treatments (1- to 4-leaf stage). Treated plants and controls were maintained in a greenhouse for 14 to 21 d, after which time all species were compared to controls and visually evaluated. Plant response ratings, summarized in Table E, are based on a scale of 0 to 100 where 0 is no effect and 100 is complete control. A dash (-) response means no test result.

[1] = test system: velvetleaf (Abutilon theophrasti); assay: Test E pre-/postemergence greenhouse test
Source text: as §1, §2

[2] = test system: surinam grass (Brachiaria decumbens); assay: Test E pre-/postemergence greenhouse test
Source text: as §1, §2

[3] = test system: ragweed (common ragweed, Ambrosia elatior); assay: Test E pre-/postemergence greenhouse test
Source text: as §1, §2

[4] = test system: pigweed, palmer (Amaranthus palmeri); assay: Test E pre-/postemergence greenhouse test
Source text: as §1, §2

[5] = test system: horseweed (Conyza canadensis); assay: Test E pre-/postemergence greenhouse test
Source text: as §1, §2

[6] = test system: mustard, wild (Sinapis arvensis); assay: Test C postemergence greenhouse test; conditions: scale 0 to 100
In short: (§3)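 Test chemicals were formulated in a non-phytotoxic solvent mixture with surfactant and applied preemergence to seeds in silt loam soil or postemergence to plants of 2 to 18 cm in a peat/vermiculite medium. After 13 to 21 d in a greenhouse, response was visually scored from 0 (no effect) to 100 (complete control).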

[7] = test system: speedwell (bird's-eye speedwell, Veronica persica); assay: Test C postemergence greenhouse test; conditions: scale 0 to 100
In short: as §3

[8] = test system: buckwheat, wild (Polygonum convolvulus); assay: Test C postemergence greenhouse test; conditions: scale 0 to 100
In short: as §3

[9] = test system: Canada thistle (Cirsium arvense); assay: Test C postemergence greenhouse test; conditions: scale 0 to 100
In short: as §3

SMILES: Cc1ccc2ccc(C)c(-c3c(O)c(Cl)nn(C)c3=O)c2c1 [Cpd. No. 20, 6-chloro-4-(2,7-dimethyl-1-naphthalenyl)-5-hydroxy-2-methyl-3(2H)-pyridazinone]
- Plant response rating, Soybean (soybean (Glycine max); Postemergence, 16 g ai/ha): 10
- Plant response rating, Soybean (soybean (Glycine max); Postemergence, 31 g ai/ha): 15
- Plant response rating, Soybean (soybean (Glycine max); Postemergence, 62 g ai/ha): 30
- Plant response rating, Soybean (soybean (Glycine max); Postemergence, 125 g ai/ha): 40
- Plant response rating, Soybean (soybean (Glycine max); Preemergence, 16 g ai/ha): 0
- Plant response rating, Soybean (soybean (Glycine max); Preemergence, 62 g ai/ha): 15
- Plant response rating, Soybean (soybean (Glycine max); Preemergence, 125 g ai/ha): 0
- Plant response rating, Velvetleaf ([1]; Preemergence, 16 g ai/ha): 50
- Plant response rating, Velvetleaf ([1]; Preemergence, 31 g ai/ha): 80
- Plant response rating, Velvetleaf ([1]; Preemergence, 62 g ai/ha): 90
- Plant response rating, Velvetleaf ([1]; Preemergence, 125 g ai/ha): 100
- Plant response rating, Surinam Grass ([2]; Preemergence, 16 g ai/ha): 35
- Plant response rating, Surinam Grass ([2]; Preemergence, 31 g ai/ha): 80
- Plant response rating, Surinam Grass ([2]; Preemergence, 62 g ai/ha): 90
- Plant response rating, Surinam Grass ([2]; Preemergence, 125 g ai/ha): 100
- Plant response rating, Ragweed ([3]; Postemergence, 16 g ai/ha): 90
- Plant response rating, Ragweed ([3]; Postemergence, 31 g ai/ha): 85
- Plant response rating, Ragweed ([3]; Postemergence, 62 g ai/ha): 95
- Plant response rating, Ragweed ([3]; Postemergence, 125 g ai/ha): 95
- Plant response rating, Ragweed ([3]; Preemergence, 16 g ai/ha): 60
- Plant response rating, Ragweed ([3]; Preemergence, 31 g ai/ha): 95
- Plant response rating, Ragweed ([3]; Preemergence, 62 g ai/ha): 95
- Plant response rating, Ragweed ([3]; Preemergence, 125 g ai/ha): 98
- Plant response rating, Pigweed, Palmer ([4]; Postemergence, 16 g ai/ha): 60
- Plant response rating, Pigweed, Palmer ([4]; Postemergence, 31 g ai/ha): 65
- Plant response rating, Pigweed, Palmer ([4]; Postemergence, 62 g ai/ha): 70
- Plant response rating, Pigweed, Palmer ([4]; Postemergence, 125 g ai/ha): 60
- Plant response rating, Pigweed, Palmer ([4]; Preemergence, 16 g ai/ha): 20
- Plant response rating, Pigweed, Palmer ([4]; Preemergence, 31 g ai/ha): 35
- Plant response rating, Pigweed, Palmer ([4]; Preemergence, 62 g ai/ha): 95
- Plant response rating, Pigweed, Palmer ([4]; Preemergence, 125 g ai/ha): 98
- Plant response rating, Horseweed ([5]; Postemergence, 16 g ai/ha): 80
- Plant response rating, Horseweed ([5]; Postemergence, 31 g ai/ha): 75
- Plant response rating, Horseweed ([5]; Postemergence, 62 g ai/ha): 85
- Plant response rating, Horseweed ([5]; Postemergence, 125 g ai/ha): 80

SMILES: Cc1ccc2ccc(Cl)cc2c1-c1c(O)c(Cl)nn(C)c1=O [Cpd. No. 22]
- Plant response rating, Mustard, Wild ([6]; 16 g ai/ha): 75
- Plant response rating, Mustard, Wild ([6]; 31 g ai/ha): 75
- Plant response rating, Mustard, Wild ([6]; 62 g ai/ha): 100
- Plant response rating, Mustard, Wild ([6]; 125 g ai/ha): 100
- Plant response rating, Speedwell ([7]; 16 g ai/ha): 50
- Plant response rating, Speedwell ([7]; 31 g ai/ha): 60
- Plant response rating, Speedwell ([7]; 62 g ai/ha): 75
- Plant response rating, Speedwell ([7]; 125 g ai/ha): 90
- Plant response rating, Buckwheat, Wild ([8]; 16 g ai/ha): 95
- Plant response rating, Buckwheat, Wild ([8]; 31 g ai/ha): 100
- Plant response rating, Buckwheat, Wild ([8]; 62 g ai/ha): 100
- Plant response rating, Buckwheat, Wild ([8]; 125 g ai/ha): 100
- Plant response rating, Canada Thistle ([9]; 16 g ai/ha): 80
- Plant response rating, Canada Thistle ([9]; 31 g ai/ha): 80
- Plant response rating, Canada Thistle ([9]; 62 g ai/ha): 100
- Plant response rating, Canada Thistle ([9]; 125 g ai/ha): 100

SMILES: Cc1cc(Cl)c2ccccc2c1-c1c(O)c(Cl)nn(C)c1=O [Cpd. No. 65]
- Plant response rating, Mustard, Wild ([6]; 16 g ai/ha): 98
- Plant response rating, Mustard, Wild ([6]; 31 g ai/ha): 100
- Plant response rating, Mustard, Wild ([6]; 62 g ai/ha): 100
- Plant response rating, Mustard, Wild ([6]; 125 g ai/ha): 100
- Plant response rating, Speedwell ([7]; 16 g ai/ha): 55
- Plant response rating, Speedwell ([7]; 31 g ai/ha): 65
- Plant response rating, Speedwell ([7]; 62 g ai/ha): 75
- Plant response rating, Speedwell ([7]; 125 g ai/ha): 90
- Plant response rating, Buckwheat, Wild ([8]; 16 g ai/ha): 100
- Plant response rating, Buckwheat, Wild ([8]; 31 g ai/ha): 100
- Plant response rating, Buckwheat, Wild ([8]; 62 g ai/ha): 100
- Plant response rating, Buckwheat, Wild ([8]; 125 g ai/ha): 100
- Plant response rating, Canada Thistle ([9]; 16 g ai/ha): 80
- Plant response rating, Canada Thistle ([9]; 31 g ai/ha): 90
- Plant response rating, Canada Thistle ([9]; 62 g ai/ha): 98
- Plant response rating, Canada Thistle ([9]; 125 g ai/ha): 90
- Plant response rating, Soybean (soybean (Glycine max); Postemergence, 16 g ai/ha): 70
- Plant response rating, Soybean (soybean (Glycine max); Postemergence, 31 g ai/ha): 80
- Plant response rating, Soybean (soybean (Glycine max); Postemergence, 62 g ai/ha): 90
- Plant response rating, Soybean (soybean (Glycine max); Postemergence, 125 g ai/ha): 93
- Plant response rating, Soybean (soybean (Glycine max); Preemergence, 16 g ai/ha): 23
- Plant response rating, Soybean (soybean (Glycine max); Preemergence, 31 g ai/ha): 13
- Plant response rating, Soybean (soybean (Glycine max); Preemergence, 62 g ai/ha): 15
- Plant response rating, Soybean (soybean (Glycine max); Preemergence, 125 g ai/ha): 43
- Plant response rating, Velvetleaf ([1]; Postemergence, 16 g ai/ha): 75
- Plant response rating, Velvetleaf ([1]; Postemergence, 31 g ai/ha): 90
- Plant response rating, Velvetleaf ([1]; Postemergence, 62 g ai/ha): 85
- Plant response rating, Velvetleaf ([1]; Postemergence, 125 g ai/ha): 90
- Plant response rating, Velvetleaf ([1]; Preemergence, 16 g ai/ha): 75
- Plant response rating, Velvetleaf ([1]; Preemergence, 31 g ai/ha): 100
- Plant response rating, Velvetleaf ([1]; Preemergence, 62 g ai/ha): 100
- Plant response rating, Velvetleaf ([1]; Preemergence, 125 g ai/ha): 100
- Plant response rating, Surinam Grass ([2]; Postemergence, 16 g ai/ha): 73
- Plant response rating, Surinam Grass ([2]; Postemergence, 31 g ai/ha): 78
- Plant response rating, Surinam Grass ([2]; Postemergence, 62 g ai/ha): 85
- Plant response rating, Surinam Grass ([2]; Postemergence, 125 g ai/ha): 93
- Plant response rating, Surinam Grass ([2]; Preemergence, 16 g ai/ha): 8
- Plant response rating, Surinam Grass ([2]; Preemergence, 31 g ai/ha): 92
- Plant response rating, Surinam Grass ([2]; Preemergence, 62 g ai/ha): 85
- Plant response rating, Surinam Grass ([2]; Preemergence, 125 g ai/ha): 100
- Plant response rating, Ragweed ([3]; Postemergence, 16 g ai/ha): 95
- Plant response rating, Ragweed ([3]; Postemergence, 31 g ai/ha): 93
- Plant response rating, Ragweed ([3]; Postemergence, 62 g ai/ha): 95
- Plant response rating, Ragweed ([3]; Postemergence, 125 g ai/ha): 93
- Plant response rating, Ragweed ([3]; Preemergence, 16 g ai/ha): 75
- Plant response rating, Ragweed ([3]; Preemergence, 31 g ai/ha): 99
- Plant response rating, Ragweed ([3]; Preemergence, 62 g ai/ha): 100
- Plant response rating, Ragweed ([3]; Preemergence, 125 g ai/ha): 100
- Plant response rating, Pigweed, Palmer ([4]; Postemergence, 16 g ai/ha): 35
- Plant response rating, Pigweed, Palmer ([4]; Postemergence, 31 g ai/ha): 43
- Plant response rating, Pigweed, Palmer ([4]; Postemergence, 62 g ai/ha): 68
- Plant response rating, Pigweed, Palmer ([4]; Postemergence, 125 g ai/ha): 55
- Plant response rating, Pigweed, Palmer ([4]; Preemergence, 16 g ai/ha): 40
- Plant response rating, Pigweed, Palmer ([4]; Preemergence, 31 g ai/ha): 58
- Plant response rating, Pigweed, Palmer ([4]; Preemergence, 62 g ai/ha): 80
- Plant response rating, Pigweed, Palmer ([4]; Preemergence, 125 g ai/ha): 90
- Plant response rating, Horseweed ([5]; Postemergence, 16 g ai/ha): 65
- Plant response rating, Horseweed ([5]; Postemergence, 31 g ai/ha): 75
- Plant response rating, Horseweed ([5]; Postemergence, 62 g ai/ha): 85
- Plant response rating, Horseweed ([5]; Postemergence, 125 g ai/ha): 85
- Plant response rating, Horseweed ([5]; Preemergence, 16 g ai/ha): 100
- Plant response rating, Horseweed ([5]; Preemergence, 31 g ai/ha): 100
- Plant response rating, Horseweed ([5]; Preemergence, 62 g ai/ha): 100
- Plant response rating, Horseweed ([5]; Preemergence, 125 g ai/ha): 100

Reference: patent US12435044B2, “Pyridazinone herbicides and pyridazinone intermediates used to prepare a herbicide” (FMC Corporation, priority 2018, dated 2025)
